Assay results taken from ChEMBL document CHEMBL3886740, “Heterocyclic compounds and uses thereof in the treatment of sexual disorders” (2016).

Biological target: T1, D(4) dopamine receptor (Homo sapiens, UniProt P21917)
T1 sequence (P21917 whole entry): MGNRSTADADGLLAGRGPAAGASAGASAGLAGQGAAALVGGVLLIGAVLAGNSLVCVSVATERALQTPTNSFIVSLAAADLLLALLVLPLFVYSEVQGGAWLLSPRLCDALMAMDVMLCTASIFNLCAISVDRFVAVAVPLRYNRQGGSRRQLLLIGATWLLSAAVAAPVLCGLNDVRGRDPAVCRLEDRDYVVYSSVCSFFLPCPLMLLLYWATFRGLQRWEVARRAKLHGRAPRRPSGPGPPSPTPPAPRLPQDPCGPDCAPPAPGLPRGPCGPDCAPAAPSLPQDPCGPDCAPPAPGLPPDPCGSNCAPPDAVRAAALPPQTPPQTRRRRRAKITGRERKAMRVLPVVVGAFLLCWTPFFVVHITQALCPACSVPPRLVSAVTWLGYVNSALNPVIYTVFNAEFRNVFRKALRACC
Assay: Receptor Binding Assay: Determination of binding to D4.4 receptor was performed using [3H]-YM-09151-2 (70-87 Ci/mmol, 0.3 nM), as a radioligand, in the presence of various concentrations of the tested compound. Reactions were carried out in 50 mM TRIS-HCl (pH 7.4) containing 5 mM MgCl2, 5 mM EDTA, 5 mM KCl and 1.5 mM CaCl2, for 60 minutes at 22° C. The reaction was terminated by rapid vacuum filtration onto glass fiber filters.

Work on O=c1[nH]c(CN2CCN(c3ccccc3O)CC2)nc2ccccc12 yielded an IC50 of 10 µM.
